Reference: US20260109688A1, “NOVEL ANTIBIOTIC COMPOUND” (SINTEF TTO AS, priority 2022, published 2026)
In brackets after ≈: the same amount, converted by molar mass.

Columns and labels:
E. faecium CCUG 37832 = assay: In vitro MIC bioassay (broth microdilution, 384 well); format: cell-based, Enterococcus faecium; settings: Mueller-Hinton broth, 2.7% DMSO
Procedure: (§1) Minimal inhibitory concentrations against a selection of Gram-positive indicator organisms (MICs) were determined according to Clinical and Laboratory Standards Institute protocols by microdilution tests using in a 384 well format. The indicator strains were incubated in TSB medium over night until OD600-0.4, then diluted to OD600=0.1 in TSB medium and further 45× in assay medium (Mueller-Hinton broth, Difco). Inoculated medium was distributed into assay plates. Inoculated wells were added a 2× dilution series of either isolated compound or vancomycin (reference) diluted in DMSO, giving a final DMSO concentration in each well of 2.7%, and final concentrations of active compound between 0 and 540 μg/ml (23 different concentrations). Four parallels were assayed for each compound and concentration. 0.5 mg of the compound produced by strain M1152ΔmatAB (P08-G05_C16) was purified on preparative HPLC, and the pure compound was tested in bioassay against a panel of strains. The indicator organisms were M. luteus ATCC 9341, Staphylococcus aureus ATCC 29213, Staphylococcus aureus ATCC 43300 (MRSA), Enterococcus faecium CCUG 37832, Enterococcus faecium CTC 492.

E. faecium CTC 492 = assay: as above; format: cell-based, Enterococcus faecium; settings: Mueller-Hinton broth, 2.7% DMSO
Procedure: as §1

## CN[C@H](CC(C)C)C(=O)N[C@H]1C(=O)N[C@@H](CC(N)=O)C(=O)N[C@H]2C(=O)N[C@H]3C(=O)N[C@H](C(=O)N[C@H](C(=O)O)c4cc(O)cc(O)c4-c4cc3ccc4O)[C@H](O)c3ccc(c(Cl)c3)Oc3cc2cc(c3O[C@@H]2O[C@H](CO)[C@@H](O)[C@H](O)[C@H]2O[C@H]2C[C@](C)(N)[C@H](O)[C@H](C)O2)Oc2ccc(cc2Cl)[C@H]1O [Vancomycin, vancomycin]
E. faecium CCUG 37832
  MIC70: E. faecium CCUG 37832: 270 µg/mL (≈ 186 µM)
E. faecium CTC 492
  MIC70: E. faecium CTC 492: 1.06 µg/mL (≈ 0.731 µM)
